Assay type in all cases: cell-based
One assay deals with IL-6. The assay is described as follows: Inhibition of IL-6 in LPS-stimulated THP-1 human monocyte cells (HTRF). As to conditions: IL-6 inhibition, LPS-stimulated THP-1 cells, HTRF. A digest of the protocol:
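THP-1 cells serum-reduced (1% FBS, 24 h), then 5000 cells/well preincubated 2 h with compound (10-point 1:3 series from 10 μM, 0.1% DMSO) before 500 ng/mL LPS for 22 h at 37 °C. Secreted IL-6 quantified by HTRF 665/620 ratio; DMSO-normalised duplicates fitted to four-parameter EC50; above 10 μM, % inhibition at 10 μM given.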

The test system of another assay is SW480 colon cancer cells. Briefly: Cell viability assay (CellTiter-Blue) in SW480 colon cancer cells. As to conditions: Homo sapiens, 96 h, four days, CellTiter-Blue. A digest of the protocol: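 Four-day viability readout in SW480 cells: compound at 0.0045–10 μM (1:3 series), DMSO controls in eight replicates, CellTiter-Blue fluorescence after ~3 h. Values are regression-derived EC50s, or percent inhibition at 10 μM when EC50 exceeds 10 μM.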
In general terms: The colour change of resazurin is a common sign of viable cells or microbes.

Assay [1] relates to primary human mesenchymal stem cells (hMSCs). The assay is described as follows: Induction of chondrogenesis in primary human mesenchymal stem cells (nodule imaging, Rhodamine B / Nile Red). The method, then: Representative compounds were screened using primary human mesenchymal stem cells (hMSCs) to determine their ability to induce chondrogenesis (process by which cartilage is developed).
Primary human mesenchymal stem cells (hMSCs) were purchased from Lonza (Walkersville, Md.) and expanded in Mesenchymal Stem Cell Growth Media (Lonza). Cells between passage 3 and 6 were used for the experiments.
Each compound was dissolved in DMSO as a 10 mM stock and used to prepare compound source plates. For the 96 well assay, serial dilution (1:3, 6-point dose-response curves from 2700 nM to 10 nM) and compound transfer was performed using the ECHO 550 (Labcyte, Sunnyvale, Calif.) into 96-well clear bottom assay plates (Greiner Bio-One) with appropriate DMSO backfill for a final DMSO concentration of 0.03%. hMSCs were plated at 20,000 cells/well in 250 μL/well Incomplete Chondrogenic Induction Medium (Lonza; DMEM, dexamethasone, ascorbate, insulin-transferrin-selenium [ITS supplement], gentamycin-amphotericin [GA-1000], sodium pyruvate, proline and L-glutamine). TGF-β3 (10 ng/mL) was used as a positive control for differentiation while negative control wells were treated with 75 nL DMSO for normalization and calculating EC50 values. For the 384 well assay, serial dilution (1:3, 8-point dose-response curves from 5000 nM to 2.2 nM) and compound transfer was performed using the ECHO 550 (Labcyte, Sunnyvale, Calif.) into 384-well clear bottom assay plates (Greiner Bio-One) with appropriate DMSO backfill for a final DMSO concentration of 0.03%. hMSCs were plated at 8,000 cells/well in 80 μL/well Incomplete Chondrogenic Induction Medium (Lonza; DMEM, dexamethasone, ascorbate, insulin-transferrin-selenium [ITS supplement], gentamycin-amphotericin [GA-1000], sodium pyruvate, proline and L-glutamine). TGF-β3 (10 ng/mL) was used as a positive control for differentiation while negative control wells were treated with 25 nL DMSO for normalization and calculating EC50 values. Cells were incubated at 37° C. and 5% CO2 for 6 days. To image chondrogenic nodules, the cells were fixed using 4% formaldehyde (Electron Microscopy Sciences), and stained with 2 μg/mL Rhodamine B (Sigma-Aldrich) and 20 μM Nile Red (Sigma-Aldrich) [Johnson K., et. al, A Stem CellBased Approach to Cartilage Repair, Science, (2012), 336(6082), 717-721]. The nodules imaged (25 images per well for 96 well plates and 9 images per well for 384 well plates at 10× magnification) by excitation at 531 nm and emission at 625 nm and quantified using the CellInsight CX5 (Thermo Scientific). Area of nodules in each well was normalized to the average of 3 DMSO treated wells on the same plate using Excel (Microsoft Inc.). The normalized averages (fold change over DMSO) of 2 or 3 replicate wells for each compound concentration were calculated. Due to solubility limitations of some of the compounds, curve fitting was incomplete leading to inaccurate EC50 determinations.
Using TGF-β3 as a positive control, the concentration of representative compounds required to induce 50% levels of chondrogenesis is reported. In addition, the maximum activity of each compound and the respective dose that each compound reached maximum chondrogenesis activity is reported.

The subject of assay [2] is Wnt activity (Sp5-Luc reporter, TCF/LEF binding sites) in SW480 colon carcinoma cells. Briefly: Screening assay for Wnt activity: Sp5-Luc reporter gene assay in stably transduced SW480 colon carcinoma cells. As to conditions: Homo sapiens, overnight incubation, 10-point curve from 10 μM. A digest of the protocol:
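SW480 cells stably transduced with a luciferase reporter driven by an Sp5 promoter of eight TCF/LEF sites were plated at 4,000 cells/well in 1% FBS medium. They were exposed overnight at 37° C to a 10-point 1:3 dilution series from 10 μM (0.1% DMSO). Luminescence was normalized to DMSO for four-parameter EC50, or percent inhibition at 10 μM.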
For orientation: Reporter assays use an easily measured gene product as a stand-in for the process of interest.

The test system of assay [3] is Primary human fibroblasts derived from IPF patients (LL29 cells) treated with TGF-β1. The assay is described as follows: Inhibition of the fibrotic process: αSMA staining in TGF-β1-treated primary human fibroblasts from IPF patients (LL29 cells). As to conditions: Fibroblast, 96 h, % αSMA-positive LL29 cells, TGF-β1 20 ng/mL, 4 days. The essentials:
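LL29 IPF-patient fibroblasts in 1% FBS stimulated with TGF-β1 (20 ng/mL) and compound (10 μM–1.87 nM, 0.1% DMSO) for 4 days at 37 °C. SYTOX-positive cells excluded; % αSMA-positive cells imaged, normalized to TGF-β1/DMSO wells; EC50 by nonlinear regression, else % inhibition at 10 μM.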

Take `COc1cncc(-c2ccc3[nH]nc(-c4cc5c(-c6ccoc6)cccc5[nH]4)c3c2)c1` [Compound 720, 3-(4-(Furan-3-yl)-1H-indol-2-yl)-5-(5-methoxypyridin-3-yl)-1H-indazole]: the EC50 with IL-6 came to 0.329 µM; with SW480 colon cancer cells, 1.4 µM; in assay [1] (concentration required to induce 50% levels of chondrogenesis vs TGF-β3 positive control, read-out: Conc (nM) of 50% TGF-β3 activity), 10 nM; in assay [2], 0.588 µM. For the same compound, the Emax in assay [1] (maximum chondrogenesis activity relative to TGF-β3 (10 ng/mL) positive control, read-out: Max. Activity as % TGF-β3 activity) worked out at 151%.
On to `FC1(F)CCN(Cc2cncc(-c3ccc4[nH]nc(-c5cc6c(-c7cccs7)cccc6[nH]5)c4c3)c2)C1` [Compound 362, 5-(5-((3,3-Difluoropyrrolidin-1-yl)methyl)pyridin-3-yl)-3-(4-(thiophen-2-yl)-1H-indol-2-yl)-1H-indazole], for which the EC50 in the assay on IL-6 stood at 0.37 µM; in the assay with SW480 colon cancer cells, 3.09 µM; in assay [3], 0.619 µM; in assay [2], 0.474 µM.
For `Cc1ccncc1-c1ccc2[nH]nc(-c3cc4c(N5CCCCC5)cccc4[nH]3)c2c1` [Compound 173, 5-(4-Methylpyridin-3-yl)-3-(4-(piperidin-1-yl)-1H-indol-2-yl)-1H-indazole], the EC50 in the assay on IL-6 is 4.31 µM; with SW480 colon cancer cells, 1.98 µM; in assay [3], 1.78 µM; in assay [2], 0.865 µM.
As to `FC1(F)CCN(Cc2cncc(-c3ccc4[nH]nc(-c5cc6c(-c7ccoc7)cccc6[nH]5)c4c3)c2)C1` [Compound 334, 5-(5-((3,3-Difluoropyrrolidin-1-yl)methyl)pyridin-3-yl)-3-(4-(furan-3-yl)-1H-indol-2-yl)-1H-indazole], the EC50 in the assay on IL-6 came out at 0.475 µM; in the assay with SW480 colon cancer cells it was 0.47 µM; in assay [3], 0.154 µM; in assay [2], 0.182 µM.
Consider `Nc1cncc(-c2ccc3[nH]nc(-c4cc5c(-c6ccsc6)cccc5[nH]4)c3c2)c1` [Compound 283, 5-(3-(4-(Thiophen-3-yl)-1H-indol-2-yl)-1H-indazol-5-yl)pyridin-3-amine], for which the EC50 with IL-6 is 0.18 µM; with SW480 colon cancer cells it was 0.111 µM; in assay [3], 0.809 µM; in assay [2], 0.04 µM.
Take `CCCC(=O)Nc1cncc(-c2ccc3[nH]nc(-c4cc5c(-c6cc(F)cc(NCCN(C)C)c6)cccc5[nH]4)c3c2)c1` [Compound 465, N-(5-(3-(4-(3-((2-(Dimethylamino)ethyl)amino)-5-fluorophenyl)-1H-indol-2-yl)-1H-indazol-5-yl)pyridin-3-yl)butyramide]: the EC50 stood at 0.876 µM in the assay on IL-6, 0.31 µM with SW480 colon cancer cells, 0.224 µM in assay [3] and 0.138 µM in assay [2].
`Cn1cc(-c2ccc3[nH]nc(-c4cc5c(-c6cccnc6)cccc5[nH]4)c3c2)cn1` [Compound 584, 5-(1-Methyl-1H-pyrazol-4-yl)-3-(4-(pyridin-3-yl)-1H-indol-2-yl)-1H-indazole]: the EC50 came to 0.012 µM with IL-6, 0.949 µM in the assay with SW480 colon cancer cells, 6.82 µM in assay [3] and 0.15 µM in assay [2].
For `CN(C)CCOc1cncc(-c2ccc3[nH]nc(-c4cc5c(-c6ccoc6)cccc5[nH]4)c3c2)c1` [Compound 719, 2-((5-(3-(4-(Furan-3-yl)-1H-indol-2-yl)-1H-indazol-5-yl)pyridin-3-yl)oxy)-N,N-dimethylethan-1-amine], the EC50 with IL-6 is 1.71 µM; in the assay with SW480 colon cancer cells, 1.37 µM; in assay [3] it was 1.95 µM; in assay [2] it was 0.68 µM.
Take `O=C(Cc1ccccc1)Nc1cncc(-c2ccc3[nH]nc(-c4cc5c(N6CCCCC6)cccc5[nH]4)c3c2)c1` [Compound 178, 2-Phenyl-N-(5-(3-(4-(piperidin-1-yl)-1H-indol-2-yl)-1H-indazol-5-yl)pyridin-3-yl)acetamide]: the EC50 in the assay on IL-6 stood at 1.29 µM; in the assay on SW480 colon cancer cells, 3.72 µM; in assay [3] it was 0.989 µM; in assay [2], 0.811 µM.
For the compound `CCCCC(=O)Nc1cncc(-c2ccc3[nH]nc(-c4cc5c(-c6ccccc6F)cccc5[nH]4)c3c2)c1` [Compound 75, N-(5-(3-(4-(2-Fluorophenyl)-1H-indol-2-yl)-1H-indazol-5-yl)pyridin-3-yl) pentanamide], the EC50 is 1 µM in the assay on IL-6, 4.8 µM in the assay with SW480 colon cancer cells, 1.98 µM in assay [3] and 1.96 µM in assay [2].
Turning to `CN(C)CCNc1cc(F)cc(-c2cccc3[nH]c(-c4n[nH]c5ccc(-c6cnn(C)c6)cc45)cc23)c1` [Compound 808, N^1-(3-Fluoro-5-(2-(5-(1-methyl-1H-pyrazol-4-yl)-1H-indazol-3-yl)-1H-indol-4-yl)phenyl)-N^2,N^2-dimethylethane-1,2-diamine], the EC50 in the assay with IL-6 turned out to be 0.006 µM; in the assay with SW480 colon cancer cells it was 0.089 µM; in assay [3], 0.088 µM; in assay [2], 0.069 µM.
Take `CN1CCN(c2cccc3[nH]c(-c4n[nH]c5ccc(-c6cncc(CN7CCC(F)(F)C7)c6)cc45)cc23)CC1` [Compound 250, 5-(5-((3,3-Difluoropyrrolidin-1-yl)methyl)pyridin-3-yl)-3-(4-(4-methylpiperazin-1-yl)-1H-indol-2-yl)-1H-indazole]: the EC50 in the assay with IL-6 was 0.099 µM; in the assay with SW480 colon cancer cells, 0.743 µM; in assay [3], 0.364 µM; in assay [2] it was 0.291 µM.
`O=C(CC1CCCCC1)Nc1cncc(-c2ccc3[nH]nc(-c4cc5c(-c6ccsc6)cccc5[nH]4)c3c2)c1` [Compound 707, 2-Cyclohexyl-N-(5-(3-(4-(thiophen-3-yl)-1H-indol-2-yl)-1H-indazol-5-yl)pyridin-3-yl)acetamide]: the EC50 in the assay on IL-6 was 1.3 µM; in the assay on SW480 colon cancer cells, 2.13 µM; in assay [3] it was > 10 µM; in assay [2], 0.57 µM.

(Values after patent publication US10604512B2, “3-(1H-indol-2-yl)-1H-indazoles and therapeutic uses thereof” (Samumed, LLC, priority 2015, dated 2020).)
